Reference: patent US11648252B2, “Methotrexate for use as a medicament” (GF SERVICE S.R.L., priority 2018, dated 2023)

What was measured:
[1] = cited from earlier work
[2] = test system: rheumatoid arthritis (RA); conditions: treating rheumatoid arthritis; cited from earlier work
[3] = test system: active rheumatoid arthritis; conditions: intramuscular, 15 to 45 mg/m^2 within 22 weeks, plus 5 mg folinic acid per week; 27 test persons; recurrent chest infections or inefficacy; cited from earlier work
[4] = test system: patients with RA; assay: STEMETRA open-label pilot study, efficacy (DAS28) of step-down SC-MTX; assay type: in vivo, human
Procedure: (§1) The STEp-down MEthotrexate Therapy in Rheumatoid Arthritis (STEMETRA) was an open-label, monocentric, pilot study with the primary aim of assessing the safety and the tolerability of high dose subcutaneous (SC)-MTX in patients with RA. […] In view of the exploratory nature of this study, the expected enrolment was of 10 patients. Patients received a SC-MTX commercially available formulation (Reumaflex®, Alfasigma, Italy), dispensed as prefilled syringes of 25 mg, 20 mg, and 15 mg. For reaching the dosage of 50 mg at the beginning of the study, patients injected two SC-MTX 25 mg syringes consecutively.
In the present experimental examples, the Disease Activity Score based on 28 joints (DAS28) testing was carried out according to the protocols described in Fransen J. et al., “Rheumatoid Arthritis measures: Disease Activity Score (DAS), Disease Activity Score-28 (DAS28), Rapid Assessment of Disease Activity in Rheumatology (RADAR), and Rheumatoid Arthritis Disease Activity Index (RADAI)”, Arthritis Rheum 2003; 49, Suppl 9: pages 214 to 224, as well as described in van der Heijde D. M. et al., “Development of a disease activity score based on judgment in clinical practice by rheumatologists”, J Rheumatol. 1993 March, 20(3), pages 579 to 581.
(§2) The protocol treatment schedule comprised administration of SC-MTX 50 mg/week for 4 consecutive weeks, followed by 25 mg/week for 4 weeks, and then 15 mg/week for 4 weeks. All patients received oral supplementation of folinic acid (leucovorin) 12 mg, twelve hours after the injection of SC-MTX. All patients had to be MTX-naïve; previous treatment with other conventional synthetic disease modifying anti-rheumatic drugs (cs)DMARDs was allowed only if they have already been withdrawn, for inefficacy or tolerability, before the baseline visit.
Eligible patients were≥18 years old affected by rheumatic arthritis (RA), according to the 2010 American College of […]/European league against rheumatism (ACR/EULAR) classification criteria^12, naïve to MTX and with an active disease, defined as a value of disease activity score (DAS)28≥3.2, with at least four tender joints and four swollen joints. Main exclusion criteria were: ongoing or previous treatment with bDMARDs, severe anaemia (defined as haemoglobin<[…]), severe thrombocytopenia (defined as platelets count<100,000/mm^3), severe leucopoenia or neutropenia (defined as white blood cells count<3,000 mm^3 or granulocytes count<1,000 mm^3), severe hepatic dysfunction [defined as aspartate aminotransferase (AST) or alanine aminotransferase (ALT)[…] the upper limit of normal(ULN)], renal function impairment (defined as creatinine clearance<40 mL/min), alcohol intake>70 g/week, pregnancy or breastfeeding, ongoing severe infections, previous infection with Hepatitis B (HBV) or Hepatitis C (HCV), positivity of Quantiferon or Mantoux test.
During each visit, disease activity score based on 28 joints (DAS28) [with both erythrocytes sedimentation rate (ESR) and C-reactive protein (CRP)], simplified disease activity index (SDAI), clinical disease activity index (CDAI), and the Health Assessment Questionnaire (HAQ) were evaluated and calculated as efficacy measures.

[5] = test system: refractory rheumatoid arthritis; conditions: IV 500 mg/m^2, 24 weeks, plus oral folinic acid 25 mg/m^2; 8 test persons; inefficacy, GI intolerance or sciatica; cited from earlier work
[6] = test system: patients; conditions: long-term data; cited from earlier work
[7] = test system: patients with RA; assay: STEMETRA open-label pilot study, safety and tolerability (adverse events, CTCAE v4.0); assay type: in vivo, human
Procedure: as §1, §2
If a patient experience fatigue (with an intensity≥grade 2), he/she could receive a double dose of folinic acid: 12 mg at 12 and 24 hours after SC-MTX, respectively.
All the adverse events (AE) occurred during the study and follow-up periods were recorded according to the Common Terminology Criteria for Adverse Events (version 4.0).

[8] = test system: resistant rheumatoid arthritis; conditions: oral, 5 to 10 to 15 mg/m^2 within 16 weeks; 36 test persons; cited from earlier work
[9] = test system: rheumatoid arthritis; conditions: IV 50 mg/week for 2 to 20 weeks; 14 test persons; oral ulceration, GI symptoms, liver enzyme abnormalities; cited from earlier work
[10] = test system: rheumatoid arthritis; conditions: IV, initial 40 mg/m^2, final 26 mg/m^2; 10 test persons; infected plantar or severe nausea; cited from earlier work
[11] = week 12, nine patients, step-down SC-MTX 50/25/15 mg/week, oral folinic acid 12 mg
[12] = nine patients, study and follow-up periods

## CN(Cc1cnc2nc(N)nc(N)c2n1)c1ccc(C(=O)N[C@@H](CCC(=O)O)C(=O)O)cc1 [MTX, (2S)-2-[[4-[(2,4-diaminopteridin-6-yl)methyl-methylamino]benzoyl]amino]-pentanedioic acid]
[1]; oral (OR-MTX)
  dose over which absorption is known to plateau: 15 mg
[1]; oral
  dosage at which oral absorption starts to plateau: 15 mg/week
[2]
  efficacy rate as a monotherapy: about 35%
[3]
  test persons who discontinued the treatment: 18.5%
[4]; step-down SC-MTX regimen, discussion summary
  patients with a significant reduction of DAS28: ~90%
[4]; week 12, 8 out of 9 patients, step-down SC-MTX 50/25/15 mg/week, oral folinic acid 12 mg
  patients showing a reduction in DAS28>1.2 from baseline: 88.8%
[4]; week 12, nine patients, SC-MTX 50 mg/week 4 weeks, then 25 mg/week 4 weeks, then 15 mg/week 4 weeks, oral folinic acid 12 mg
  patients who achieved DAS28 remission: 44.4%
[4]; [11]
  patients showing moderate disease activity (DAS28): 11.1%
  patients who reached low disease activity (DAS28): 22.2%
  patients who still had high disease activity (DAS28): 22.2%
[5]
  test persons who withdrew the treatment: 37%
[6]
  patients who could experience liver enzymes elevation: more than 10%
  patients who had to stop MTX because of liver enzymes elevation: less than 5%
[7]; Patient #6, week 4, resolved spontaneously, normal at week 8
  increase of alanine aminotransferase (ALT): < 2 ULN
[7]; [12]
  number of patients in whom AEs occurred: 4
  total number of AEs: 5
[7]; nine patients, whole study
  severe AEs: none
[7]; week 4
  number of patients with a mild (and transitory) increase in ALT: one
[7]; while taking SC-MTX 50 mg/week
  AEs occurring in the first 4 weeks: none
[8]
  test persons who discontinued the treatment due to high toxicity: 33%
[9]
  test persons who had to reduce or discontinue the treatment due to toxicity: 35%
[10]
  test persons who did not complete the study: Two
